This experiment is described as follows: Ratio of Ki for mouse wild type C1b domain of PKCdelta to Ki for mouse PKCdelta C1b Q27E mutant.

Molecules are shown by their SMILES.

Usually Ki stands for a measure of affinity in units of concentration, obtained from inhibition or displacement. `CCCC(=O)O[C@@H]1[C@@H](C)[C@@]2(O)[C@@H](C=C(CO)C[C@]3(O)C(=O)C(C)=C[C@@H]23)[C@@H]2C(C)(C)[C@]12OC(=O)CCC` [(1aR,1bS,4aR,7aS,7bS,8R,9R,9aS)-4a,7b-dihydroxy-3-(hydroxymethyl)-1,1,6,8-tetramethyl-5-oxo-1,1a,1b,4,4a,5,7a,7b,8,9-decahydro-9aH-cyclopropa[3,4]benzo[1,2-e]azulene-9,9a-diyl dibutanoate]: the Ki worked out at 19 nM.

The record behind these values is BindingDB's records for doi:10.1021/jm0702579 (National Cancer Institute-Frederick, 2007).
